Assays:
[1] = tested on: mice; assay: Sponge angiogenesis model (haemoglobin content of implanted cellulose sponge); format: in vivo; conditions: at a concentration of 300 μM
Text: Sponge Angiogenesis Model
The sponge angiogenesis model is an adaptation of the technique of Andrade et al. [Andrade S P, Machado R., Teixeiras, Belo A V, Tarso A M, Beraldo W T—Sponge-induced angiogenesis in mice and the pharmacological reactivity of the neovasculature quantitated by fluorimetric method, Microvascular Research, 1997, 54: 253-61.]
The mice used are BalbC females from Charles River Laboratory, 7 to 10 weeks old. The animals are anaesthetized by intraperitoneal injection of a xylazine/ketamine mixture (1 mg/kg each in 0.9% NaCl). The animal's back is shaved and disinfected with hexomedine. A subcutaneous 5 ml pocket of air is made on the animal's back with sterile air. An incision is then made (approximately 1 cm) on the top of the animal's back in order to implant the sponge in the pocket. The biocompatible cellulose sponge (Cellspon, Interchim, 10 mm in diameter) was sterilized beforehand (autoclave 20 min at 120° C.) and is impregnated with 50 μl of sterile solution containing the test product. Suturing is performed by inserting two 9-mm stainless steel autoclip staples (Subra). The wound is again disinfected with hexomedine. […]
To assay the haemoglobin, 50 μl of each sample are deposited in a 96-well plate, in duplicate. […] The OD values are read on a spectrophotometer at 405 nm, using the Biolise software (Tecan, France). […]

[2] = tested on: human venous endothelial cells (HUVECs); assay: In vitro angiogenesis model (pseudotubule length of HUVECs on matrigel/collagen); format: cell-based; set-up: % activation with respect to FGF2 (in vitro): concentration or dose not given beside the values; conditions: for EC50 / % activation with respect to FGF2 (in vitro): in vitro; for % activation with respect to FGF2 (in vitro): relative to FGF2
Procedure: In Vitro Angiogenesis Model
The products are tested for their ability to cause rearrangement of human venous endothelial cells (HUVECs) on matrigel (Becton dickinson 356230) diluted in collagen (rat tail collagen, type I: Becton dickinson 354236). After 24 hours, the cells are observed under a microscope with a ×4 objective and the length of the pseudotubules is measured by means of an image analyser (BIOCOM-logiciel Visiolab 2000).

Row | Structure (SMILES) | active on the in vitro angiogenesis model (sentence stands under the sponge angiogenesis model) [1] | EC50 [2] [nM] | % activation with respect to FGF2 (in vitro) [2] [%] | EC50 ([2]; Homo sapiens, HUVEC) [nM] | active on the in vitro angiogenesis model ([2]; at a concentration of 10 nM)
1 | Cc1c(-c2ccc(OCC(=O)NCCCCCCNC(=O)COc3ccc(-c4c(C)c(C(=O)c5ccc6[nH]c(=O)n(CC(=O)O)c(=O)c6c5)n5ccccc45)cc3)cc2)c2ccccn2c1C(=O)c1ccc2[nH]c(=O)n(CC(=O)O)c(=O)c2c1 [Compound 4] | active | < 1 | 57 | – | –
2 | Cc1c(-c2ccc(OCCCCCN(CCCCCOc3ccc(-c4c(C)c(C(=O)c5ccc6c(=O)n(CC(=O)O)c(=O)[nH]c6c5)n5ccccc45)cc3)CCN3CCN(C)CC3)cc2)c2ccccn2c1C(=O)c1ccc2c(=O)n(CC(=O)O)c(=O)[nH]c2c1 [Compound 11, 2,2′-({[2-(4-methylpiperazin-1-yl)ethyl]imino}bis[pentane-5,1-diyloxybenzene-4,1-diyl(2-methylindolizine-1,3-diyl)carbonyl(2,4-dioxo-1,4-dihydroquinazoline-7,3(2H)-diyl)])diacetic acid] | – | – | 63 | < 1 | –
3 | Cc1c(-c2ccc(OCCCCCN(CCCCCOc3ccc(-c4c(C)c(C(=O)c5ccc6c(=O)n(CC(=O)O)c(=O)[nH]c6c5)n5ccccc45)cc3)Cc3ccncc3)cc2)c2ccccn2c1C(=O)c1ccc2c(=O)n(CC(=O)O)c(=O)[nH]c2c1 [Compound 12, 2,2′-{[(pyridin-4-ylmethyl)imino]bis[pentane-5,1-diyloxybenzene-4,1-diyl(2-methylindolizine-1,3-diyl)carbonyl(2,4-dioxo-1,4-dihydroquinazoline-7,3(2H)-diyl)]}diacetic acid] | – | – | 42 | < 1 | –
4 | Cc1c(-c2ccc(OCCCCCN(CCCCCOc3ccc(-c4c(C)c(C(=O)c5ccc6c(=O)n(CC(=O)O)c(=O)[nH]c6c5)n5ccccc45)cc3)Cc3ccc(N(C)C)cc3)cc2)c2ccccn2c1C(=O)c1ccc2c(=O)n(CC(=O)O)c(=O)[nH]c2c1 [Compound 13, 2,2′-({[4-(dimethylamino)benzyl]imino}bis[pentane-5,1-diyloxybenzene-4,1-diyl(2-methylindolizine-1,3-diyl)carbonyl(2,4-dioxo-1,4-dihydroquinazoline-7,3(2H)-diyl)])diacetic acid] | – | – | 23 | < 100 | –
5 | CCN(CC)CCN(CCCCCOc1ccc(-c2c(C)c(C(=O)c3ccc4c(=O)n(CC(=O)O)c(=O)[nH]c4c3)n3ccccc23)cc1)CCCCCOc1ccc(-c2c(C)c(C(=O)c3ccc4c(=O)n(CC(=O)O)c(=O)[nH]c4c3)n3ccccc23)cc1 [Compound 14, 2,2′-({[2-(diethylamino)ethyl]imino}bis[pentane-5,1-diyloxybenzene-4,1-diyl(2-methylindolizine-1,3-diyl)carbonyl(2,4-dioxo-1,4-dihydroquinazoline-7,3(2H)-diyl)])diacetic acid] | – | – | 62 | < 1 | –
6 | Cc1c(-c2ccc(OCCCN3CCN(CCCOc4ccc(-c5c(C)c(C(=O)c6ccc7c(=O)n(CC(=O)O)c(=O)[nH]c7c6)n6ccccc56)cc4)CC3)cc2)c2ccccn2c1C(=O)c1ccc2c(=O)n(CC(=O)O)c(=O)[nH]c2c1 [Compound 15, 2,2′-{piperazine-1,4-diylbis[propane-3,1-diyloxybenzene-4,1-diyl(2-methylindolizine-1,3-diyl)carbonyl(2,4-dioxo-1,4-dihydroquinazoline-7,3(2H)-diyl)]}diacetic acid] | – | – | 24 | < 100 | –
7 | Cc1c(-c2ccc(C(=O)NCCOP(=O)(O)OCCNC(=O)c3ccc(-c4c(C)c(C(=O)c5ccc6c(=O)n(CC(=O)O)c(=O)[nH]c6c5)n5ccccc45)cc3)cc2)c2ccccn2c1C(=O)c1ccc2c(=O)n(CC(=O)O)c(=O)[nH]c2c1 [Compound 16, [7-({1-[4-({9-[4-(3-{[3-(carboxymethyl)-2,4-dioxo-1,4-dihydroquinazolin-7(2H)-yl]carbonyl}-2-methylindolizin-1-yl)phenyl]-4-hydroxy-4-oxido-9-oxo-3,5-dioxa-8-aza-4λ^5-phosphanon-1-yl}carbamoyl)phenyl]-2-methylindolizin-3-yl}carbonyl)-2,4-dioxo-1,4-dihydroquinazolin-3(2H)-yl]acetic acid] | – | – | 82 | < 1 | active
8 | Cc1c(-c2ccc(C(=O)NCCOCCOCCNC(=O)c3ccc(-c4c(C)c(C(=O)c5ccc6c(=O)n(CC(=O)O)c(=O)[nH]c6c5)n5ccccc45)cc3)cc2)c2ccccn2c1C(=O)c1ccc2c(=O)n(CC(=O)O)c(=O)[nH]c2c1 [Compound 17, 2,2′-{ethane-1,2-diylbis[oxyethane-2,1-diylcarbamoylbenzene-4,1-diyl(2-methylindolizine-1,3-diyl)carbonyl(2,4-dioxo-1,4-dihydroquinazoline-7,3(2H)-diyl)]}diacetic acid] | – | 10 | 44 | – | –
9 | Cc1c(-c2cccc(C(=O)NCCOCCOCCNC(=O)c3cccc(-c4c(C)c(C(=O)c5ccc6c(=O)n(CC(=O)O)c(=O)[nH]c6c5)n5ccccc45)c3)c2)c2ccccn2c1C(=O)c1ccc2c(=O)n(CC(=O)O)c(=O)[nH]c2c1 [Compound 18, 2,2′-{ethane-1,2-diylbis[oxyethane-2,1-diylcarbamoylbenzene-3,1-diyl(2-methylindolizine-1,3-diyl)carbonyl(2,4-dioxo-1,4-dihydroquinazoline-7,3(2H)-diyl)]}diacetic acid] | – | < 1 | 85 | – | –
10 | Cc1c(-c2cccc(C(=O)NCCOP(=O)(O)OCCNC(=O)c3cccc(-c4c(C)c(C(=O)c5ccc6c(=O)n(CC(=O)O)c(=O)[nH]c6c5)n5ccccc45)c3)c2)c2ccccn2c1C(=O)c1ccc2c(=O)n(CC(=O)O)c(=O)[nH]c2c1 [Compound 19, [7-({1-[3-({9-[3-(3-{[3-(carboxymethyl)-2,4-dioxo-1,4-dihydroquinazolin-7(2H)-yl]carbonyl}-2-methylindolizin-1-yl)phenyl]-4-hydroxy-4-oxido-9-oxo-3,5-dioxa-8-aza-4λ^5-phosphanon-1-yl}carbamoyl)phenyl]-2-methylindolizin-3-yl}carbonyl)-2,4-dioxo-1,4-dihydroquinazolin-3(2H)-yl]acetic acid] | – | – | 35 | 3 | –
11 | Cc1c(NC(=O)c2cccc(OCC(=O)NCCNC(=O)COc3cccc(C(=O)Nc4c(C)c(C(=O)c5ccc6c(=O)n(CC(=O)O)c(=O)[nH]c6c5)n5ccccc45)c3)c2)c2ccccn2c1C(=O)c1ccc2c(=O)n(CC(=O)O)c(=O)[nH]c2c1 [Compound 20] | – | < 3 | 61 | – | –

Reference: US9206177B2, “Substituted dimeric quinazoline-2,4-diones as FGF receptor agonists” (Sanofi, priority 2011, dated 2015)
